Measured values from paper PMC11061419, “Identification of novel small molecule inhibitors of twin arginine translocation (Tat) pathway and their effect on the control of Campylobacter jejuni in chickens” (Frontiers in Microbiology, 2024).
Converted amounts (≈) assume the structure as drawn. “And” between values parts separate entries of the source, which are not always exact repeats. Identical values can stand only once.

What was measured:
[1] = test system: C. jejuni 81–176; assay: Copper sulfate sensitivity dose–response assay in vitro (MIC/MBC); assay type: cell-based, Campylobacter jejuni; conditions: for MBC / MIC: Campylobacter jejuni, 0.5 mM CuSO4, head displaced; for MBC: read-out: MBC, C. jejuni (Table S5); for MIC: read-out: MIC, C. jejuni (Table S4); for C. jejuni 81–176 in vitro MBC: minimal bactericidal concentration in presence of 0.5 mM CuSO4; for C. jejuni 81–176 in vitro MIC: minimal bacteriostatic concentration in presence of 0.5 mM CuSO4
Procedure: (§1) In total, 19 SMs were two-fold serially diluted to obtain a final SM concentration ranging from 6.25 to 0.012 μg/mL. C. jejuni 81–176 was then treated with a determined concentration of SM, as described in the copper sensitivity assay. […] The lowest bactericidal SM concentration was considered the MBC (no increase in OD600 over time and no viable cells were recovered on agar plate after challenge) (N = 3 replicates per SM). […] However, these SMs were two-fold serially diluted to obtain a final SM concentration ranging from 5 μg to 0.0625 μg for testing (N = two independent experiments with four technical replicate for each SM).

[2] = test system: C. coli ATCC33559; assay: as above; assay type: cell-based; conditions: Campylobacter coli; for MIC: ATCC33559, read-out: MIC, C. coli (Table S4); for MBC: ATCC33559, 0.5 mM CuSO4, read-out: MBC, C. coli (Table S5)
Procedure: (§2) Campylobacter jejuni 81–176 was the primary model strain used for the selection of the potential Tat-dependent inhibitors by high-throughput screening. C. jejuni 81–176 is resistant to 0.5 and 1 mM CuSO4 (Supplementary Figure S1). C. jejuni 81–176 tatC knockout mutant (C. jejuni ΔtatC) was used to confirm the Tat-dependent inhibitory effect of the selected SM. C. jejuni ΔtatC is susceptible to 0.5 mM and higher of CuSO4 ([Rajashekara et al., 2009]). The specificity of the Tat-dependent inhibitors was also tested on 11 additional Campylobacter strains (C. coli ATCC33559 and 10 other C. jejuni strains isolated from chickens) and 7 commensal/beneficial bacteria (Supplementary Table S1). The […] (Au-13, Au-20, Au-38, Au-39, Au-47, Au-50, Au-24, Au-32, Au-44, and Au-45) were selected based on their single nucleotide polymorphism (SNP)-type and percent of prevalence in chickens ([Merchant-Patel et al., 2008]; [Kumar et al., 2016]). Additional details about the bacterial strains are shown in Supplementary Table S1.
as §1

[3] = test system: C. jejuni Au-20; assay: as above; assay type: cell-based; conditions: Campylobacter jejuni; for MIC: AU20, read-out: MIC, Au-20 (Table S4); for MBC: AU20, 0.5 mM CuSO4, read-out: MBC, Au-20 (Table S5)
Procedure: as §2, §1

[4] = test system: C. jejuni Au-24; assay: as above; assay type: cell-based; conditions: Campylobacter jejuni; for MIC: AU24, read-out: MIC, Au-24 (Table S4); for MBC: AU24, 0.5 mM CuSO4, read-out: MBC, Au-24 (Table S5)
Procedure: as §2, §1

[5] = test system: C. jejuni Au-32; assay: as above; assay type: cell-based; conditions: Campylobacter jejuni; for MIC: AU32, read-out: MIC, Au-32 (Table S4); for MBC: AU32, 0.5 mM CuSO4, read-out: MBC, Au-32 (Table S5)
Procedure: as §2, §1

[6] = test system: C. jejuni Au-38; assay: as above; assay type: cell-based; conditions: Campylobacter jejuni; for MIC: AU38, read-out: MIC, Au-38 (Table S4); for MBC: AU38, 0.5 mM CuSO4, read-out: MBC, Au-38 (Table S5)
Procedure: as §2, §1

[7] = test system: C. jejuni Au-44; assay: as above; assay type: cell-based; conditions: Campylobacter jejuni; for MIC: AU44, read-out: MIC, Au-44 (Table S4); for MBC: AU44, 0.5 mM CuSO4, read-out: MBC, Au-44 (Table S5)
Procedure: as §2, §1

[8] = test system: C. jejuni Au-45; assay: as above; assay type: cell-based; conditions: Campylobacter jejuni; for MIC: AU45, read-out: MIC, Au-45 (Table S4); for MBC: AU45, 0.5 mM CuSO4, read-out: MBC, Au-45 (Table S5)
Procedure: as §2, §1

[9] = test system: C. jejuni Au-47; assay: as above; assay type: cell-based; conditions: Campylobacter jejuni; for MIC: AU47, read-out: MIC, Au-47 (Table S4); for MBC: AU47, 0.5 mM CuSO4, read-out: MBC, Au-47 (Table S5)
Procedure: as §2, §1

[10] = test system: C. jejuni Au-50; assay: as above; assay type: cell-based; conditions: Campylobacter jejuni; for MIC: AU50, read-out: MIC, Au-50 (Table S4); for MBC: AU50, 0.5 mM CuSO4, read-out: MBC, Au-50 (Table S5)
Procedure: as §2, §1

[11] = test system: Campylobacter spp. (12 strains); assay: Activity spectrum against Campylobacter strains at 6.25 μg/mL with 0.5 mM CuSO4; assay type: cell-based, Campylobacter jejuni, Campylobacter coli; conditions: 6.25 μg/mL SM
[12] = test system: Commensal/beneficial gut bacteria (n = 7); assay: Activity spectrum against commensal/beneficial gut bacteria at 6.25 μg/mL; assay type: cell-based; conditions: 6.25 μg/mL SM
Procedure: A similar experiment was performed with seven commensal/beneficial gut bacteria to determine species specificity of these SMs. In brief, an overnight suspension was normalized at 0.05 OD600 using the appropriate medium and challenged with 6.25 μg/mL of SM. Details about the strains and their growing conditions are shown in Supplementary Table S1. Medium alone and 1% DMSO were used as controls (N = 3 replicates per SM).

[13] = test system: intracellular C. jejuni 81–176 in Caco-2 cells; assay: Copper sulfate sensitivity dose–response assay in infected Caco-2 colon epithelial cells; assay type: cell-based, Campylobacter jejuni; conditions: 0.5 mM CuSO4; for C. jejuni 81–176 MBC in Caco2 cells: infected Caco-2 cells, 24 h
Procedure: The intracellular reduction in C. jejuni in the presence of a given SM (T1-T8) and 0.5 mM CuSO4 were evaluated using Caco-2 cells, as previously described ([Kumar et al., 2016]; [Deblais et al., 2019]). In brief, cells were infected for 2 h using a multiplicity of infection (MOI) of 100. Infected cells were treated with SM at a final concentration ranging between 5 and 0.315 μg/mL and incubated at 37°C for 24 h in a humidified 5% CO2 incubator. Following incubation, cells were washed once with 1X PBS, lysed with 0.1% Triton-100X, serially 10-fold diluted in 1X PBS, and plated on MH agar plate. Plates were incubated in microaerophilic conditions at 42°C for 24 h, to determine the intracellular survival. Cells not infected and not treated and cells infected and treated with 1% DMSO were used as controls (N = two independent experiments with four technical replicate for each SM).

[14] = test system: Caco-2 cells; assay: Cytotoxicity on Caco-2 colon epithelial cells (LDH assay); assay type: cell-based; conditions: for cytotoxicity index on Caco-2 cells: 5 μg SM /ml, 24 h; for toxicity level to Caco-2 cells: 25 μg/mL or 50 μg/mL of SM for 24 h
Procedure: Cytotoxicity of the eight SMs (T1-T8) was tested on Caco-2 cells at 5, 25, and 50 μg/mL, as previously described ([Kumar et al., 2016]; [Deblais et al., 2019]). In brief, a 96-well plate seeded with approximately 1.4 × 10^5 Caco-2 cells/well in MEM medium was challenged with a final SM concentration of 5, 25, and 50 μg/mL. After 24 h of incubation at 37°C in a humidified 5% CO2 incubator, cytotoxic effects were determined using the PierceTM Lactate Dehydrogenase Cytotoxicity Assay Kit (Thermo Fisher Scientific). Cell death was measured based on the production of formazan (chromogenic dye), which can be read at OD570. Equal concentrations (5, 25, and 50 μg/mL) of kanamycin or chloramphenicol, 1% DMSO, and 10X lysis buffer were used as control. The cytotoxicity level was calculated according to the manufacturer’s instructions (N = two independent experiments with three technical replicate for each SM).

Row | SMILES | MBC [1] [µg/mL] | MIC [1] [µg/mL] | C. jejuni 81–176 in vitro MBC [1] [µg/mL] | C. jejuni 81–176 in vitro MIC [1] [µg/mL] | MIC [2] [µg/mL] | MBC [2] [µg/mL] | MIC [3] [µg/mL] | MBC [3] [µg/mL] | MIC [4] [µg/mL] | MBC [4] [µg/mL] | MIC [5] [µg/mL] | MBC [5] [µg/mL] | MIC [6] [µg/mL] | MBC [6] [µg/mL] | MIC [7] [µg/mL] | MBC [7] [µg/mL] | MIC [8] [µg/mL] | MBC [8] [µg/mL] | MIC [9] [µg/mL] | MBC [9] [µg/mL] | further results
1 | CCN(CC)/C(C)=N/C(=O)Nc1ccccc1 [T8] | 0.12 (≈ 0.514 µM) | 0.08 (≈ 0.343 µM) | 0.12 | 0.08 | 0.25 (≈ 1.07 µM) | 0.25 (≈ 1.07 µM) | 0.25 (≈ 1.07 µM) | 0.25 (≈ 1.07 µM) | 0.06 (≈ 0.257 µM) | 0.06 (≈ 0.257 µM) | 0.25 (≈ 1.07 µM) | 0.25 (≈ 1.07 µM) | 0.06 (≈ 0.257 µM) | 0.06 (≈ 0.257 µM) | 0.06 (≈ 0.257 µM) | 0.12 (≈ 0.514 µM) | 0.25 (≈ 1.07 µM) | 0.25 (≈ 1.07 µM) | 0.06 (≈ 0.257 µM) | 0.06 (≈ 0.257 µM) | MIC [10]: 0.25 µg/mL (≈ 1.07 µM); MBC [10]: 0.5 µg/mL (≈ 2.14 µM); Growth inhibition at 6.25 μg/mL, Campylobacter spp. (strains inhibited/tested) [11]: 12/12; Growth inhibition at 6.25 μg/mL, Commensal/beneficial gut bacteria (strains inhibited/tested) [12]: 2/7; Commensal/beneficial gut bacteria inhibited at 6.25 μg/mL (species) ([12]; Ef Enterococcus faecalis, Lb Levilactobacillus brevis, LGG Lacticaseibacillus rhamnosus GG): Lb and Ef; SM concentration that completely cleared intracellular C. jejuni 81–176 in Caco-2 cells (MBC in Caco2 cells) ([13]; 24 h treatment): < 5 µg/mL and 5 µg/mL; C. jejuni 81–176 MBC in Caco2 cells [13]: 5 µg/mL; cytotoxicity index on Caco-2 cells [14]: < 20%; toxicity level to Caco-2 cells [14]: 33%
2 | CCCNC(=S)Nc1cc(OC)cc(OC)c1 [T1] | 0.62 (≈ 2.44 µM) | 0.19 (≈ 0.747 µM) | 0.62 | 0.19 | 0.31 (≈ 1.22 µM) | 0.62 (≈ 2.44 µM) | 0.31 (≈ 1.22 µM) | 0.62 (≈ 2.44 µM) | 0.16 (≈ 0.629 µM) | 0.32 (≈ 1.26 µM) | 0.62 (≈ 2.44 µM) | 1.24 (≈ 4.88 µM) | 0.31 (≈ 1.22 µM) | 0.62 (≈ 2.44 µM) | 0.31 (≈ 1.22 µM) | 0.62 (≈ 2.44 µM) | 0.31 (≈ 1.22 µM) | 0.62 (≈ 2.44 µM) | 0.16 (≈ 0.629 µM) | 0.32 (≈ 1.26 µM) | MIC [10]: 0.31 µg/mL (≈ 1.22 µM); MBC [10]: 0.62 µg/mL (≈ 2.44 µM); Growth inhibition at 6.25 μg/mL, Campylobacter spp. (strains inhibited/tested) [11]: 12/12; Growth inhibition at 6.25 μg/mL, Commensal/beneficial gut bacteria (strains inhibited/tested) [12]: 0/7; C. jejuni 81–176 MBC in Caco2 cells [13]: 0.63 µg/mL; cytotoxicity index on Caco-2 cells [14]: < 20%; toxicity level to Caco-2 cells [14]: 36%
